Measured values published in ChEMBL document CHEMBL6178016, “Design, Synthesis, and Biological Evaluation of New PDE4 Inhibitors for the Treatment of Pressure Ulcers” (J Med Chem, 2025).
The source made the active and inactive calls. The calls are words filed in the database; no cut-off is given here.

Key:
[1] = Oral bioavailability in Sprague-Dawley rat at 10 mg/kg; format: ADME, organism-based; conditions: in vivo
[2] = Tmax in Sprague-Dawley rat at 10 mg/kg, po; format: ADME, organism-based; conditions: in vivo
RAW264.7 [3] = test: Cytotoxicity against mouse RAW264.7 cells measured after 24 hrs by CCK-8 method; format: functional
Cytochrome P450 2D6 = Cytochrome P450 2D6 (Homo sapiens, UniProt P10635); test: Inhibition of human CYP2D6; format: ADME
Chain of Cytochrome P450 2D6 (P10635 whole entry): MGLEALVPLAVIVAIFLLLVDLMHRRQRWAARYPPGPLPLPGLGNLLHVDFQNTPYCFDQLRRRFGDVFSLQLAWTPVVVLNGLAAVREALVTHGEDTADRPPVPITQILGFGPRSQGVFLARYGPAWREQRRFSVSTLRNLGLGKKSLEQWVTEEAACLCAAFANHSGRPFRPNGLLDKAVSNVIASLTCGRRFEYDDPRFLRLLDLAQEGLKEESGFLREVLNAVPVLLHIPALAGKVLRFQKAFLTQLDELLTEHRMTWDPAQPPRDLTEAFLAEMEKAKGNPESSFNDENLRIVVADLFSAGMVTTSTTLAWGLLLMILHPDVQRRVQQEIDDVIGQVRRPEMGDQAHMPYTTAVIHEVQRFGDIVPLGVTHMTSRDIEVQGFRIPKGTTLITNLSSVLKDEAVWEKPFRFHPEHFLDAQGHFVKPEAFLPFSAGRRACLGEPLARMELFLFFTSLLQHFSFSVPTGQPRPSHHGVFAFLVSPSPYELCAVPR

RAW264.7 [4] = test: Antiinflammatory activity against LPS induced mouse RAW264.7 cells assessed as increase in CREB phosphorylation expression at 5 to 20 uM by immunofluorescence analysis; format: functional, cell-based; conditions: dose 5-20 µM
Rattus norvegicus [5] = test: Antiinflammatory activity against male Sprague-Dawley rat pressure ulcer model assessed as appearance of thinner epidermal layer at 0.625 to 2.5% administered as ointment by Masson staining based analysis; format: functional, organism-based
[6] = Acute toxicity in female Kunming mouse assessed as effect on pathological changes in spleen at 500 to 4000 mg/kg measured after 14 days by H and E staining based analysis; format: organism-based; conditions: in vivo, 336 h, dose 500-4000 mg/kg, time 14 day
[7] = target: 3',5'-cyclic-AMP phosphodiesterase 4D (Homo sapiens, UniProt Q08499); test: Inhibition of PDE4D (unknown origin)
Chain of 3',5'-cyclic-AMP phosphodiesterase 4D (Q08499 whole entry): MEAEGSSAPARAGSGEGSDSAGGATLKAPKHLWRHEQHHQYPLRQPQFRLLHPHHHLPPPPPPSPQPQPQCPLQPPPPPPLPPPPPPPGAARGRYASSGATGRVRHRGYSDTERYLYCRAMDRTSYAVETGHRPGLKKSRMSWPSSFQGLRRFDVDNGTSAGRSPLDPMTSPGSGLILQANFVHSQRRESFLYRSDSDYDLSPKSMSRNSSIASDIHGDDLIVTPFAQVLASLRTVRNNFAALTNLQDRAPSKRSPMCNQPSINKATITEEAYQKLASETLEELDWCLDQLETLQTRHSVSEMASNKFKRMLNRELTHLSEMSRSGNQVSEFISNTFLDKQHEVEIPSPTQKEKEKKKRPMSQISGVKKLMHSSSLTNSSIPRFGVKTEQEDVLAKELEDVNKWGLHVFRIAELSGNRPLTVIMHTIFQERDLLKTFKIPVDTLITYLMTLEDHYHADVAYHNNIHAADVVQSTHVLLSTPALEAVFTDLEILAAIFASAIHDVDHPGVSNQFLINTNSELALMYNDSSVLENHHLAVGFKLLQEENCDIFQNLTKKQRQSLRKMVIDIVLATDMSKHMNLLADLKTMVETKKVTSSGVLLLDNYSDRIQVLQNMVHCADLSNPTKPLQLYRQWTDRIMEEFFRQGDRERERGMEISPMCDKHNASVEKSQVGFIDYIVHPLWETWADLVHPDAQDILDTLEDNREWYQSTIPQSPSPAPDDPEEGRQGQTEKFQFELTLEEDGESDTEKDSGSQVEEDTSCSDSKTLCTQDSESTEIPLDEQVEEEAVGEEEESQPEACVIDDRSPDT

[8] = Acute toxicity in female Kunming mouse assessed as effect on pathological changes in liver at 500 to 4000 mg/kg measured after 14 days by H and E staining based analysis; format: organism-based; conditions: in vivo, 336 h, dose 500-4000 mg/kg, time 14 day
[9] = Acute toxicity in female Kunming mouse assessed as effect on weight at 500 to 4000 mg/kg measured after 14 days; format: organism-based; conditions: in vivo, 336 h, dose 500-4000 mg/kg, time 14 day
RAW264.7 [10] = test: Antiinflammatory activity against mouse RAW264.7 cells assessed as increase in cAMP expression at 5 to 20 uM by […] analysis; format: functional, cell-based; conditions: dose 5-20 µM
[11] = AUC (0 to infinity) in Sprague-Dawley rat at 5 mg/kg, iv; format: ADME, organism-based; conditions: in vivo
Rattus norvegicus [12] = test: Antiinflammatory activity against male Sprague-Dawley rat pressure ulcer model assessed as appearance of orderly arranged cells at 0.625 to 2.5% administered as ointment by H and E staining based analysis; format: functional, organism-based
[13] = AUC (0 to infinity) in Sprague-Dawley rat at 10 mg/kg, po; format: ADME, organism-based; conditions: in vivo
[14] = target: Voltage-gated inwardly rectifying potassium channel KCNH2 (Homo sapiens, UniProt Q12809); test: Inhibition of human ERG stably expressed in HEK293 cells by manual membrane clamp technique; format: toxicity, cell-based
Chain of Voltage-gated inwardly rectifying potassium channel KCNH2 (Q12809 whole entry): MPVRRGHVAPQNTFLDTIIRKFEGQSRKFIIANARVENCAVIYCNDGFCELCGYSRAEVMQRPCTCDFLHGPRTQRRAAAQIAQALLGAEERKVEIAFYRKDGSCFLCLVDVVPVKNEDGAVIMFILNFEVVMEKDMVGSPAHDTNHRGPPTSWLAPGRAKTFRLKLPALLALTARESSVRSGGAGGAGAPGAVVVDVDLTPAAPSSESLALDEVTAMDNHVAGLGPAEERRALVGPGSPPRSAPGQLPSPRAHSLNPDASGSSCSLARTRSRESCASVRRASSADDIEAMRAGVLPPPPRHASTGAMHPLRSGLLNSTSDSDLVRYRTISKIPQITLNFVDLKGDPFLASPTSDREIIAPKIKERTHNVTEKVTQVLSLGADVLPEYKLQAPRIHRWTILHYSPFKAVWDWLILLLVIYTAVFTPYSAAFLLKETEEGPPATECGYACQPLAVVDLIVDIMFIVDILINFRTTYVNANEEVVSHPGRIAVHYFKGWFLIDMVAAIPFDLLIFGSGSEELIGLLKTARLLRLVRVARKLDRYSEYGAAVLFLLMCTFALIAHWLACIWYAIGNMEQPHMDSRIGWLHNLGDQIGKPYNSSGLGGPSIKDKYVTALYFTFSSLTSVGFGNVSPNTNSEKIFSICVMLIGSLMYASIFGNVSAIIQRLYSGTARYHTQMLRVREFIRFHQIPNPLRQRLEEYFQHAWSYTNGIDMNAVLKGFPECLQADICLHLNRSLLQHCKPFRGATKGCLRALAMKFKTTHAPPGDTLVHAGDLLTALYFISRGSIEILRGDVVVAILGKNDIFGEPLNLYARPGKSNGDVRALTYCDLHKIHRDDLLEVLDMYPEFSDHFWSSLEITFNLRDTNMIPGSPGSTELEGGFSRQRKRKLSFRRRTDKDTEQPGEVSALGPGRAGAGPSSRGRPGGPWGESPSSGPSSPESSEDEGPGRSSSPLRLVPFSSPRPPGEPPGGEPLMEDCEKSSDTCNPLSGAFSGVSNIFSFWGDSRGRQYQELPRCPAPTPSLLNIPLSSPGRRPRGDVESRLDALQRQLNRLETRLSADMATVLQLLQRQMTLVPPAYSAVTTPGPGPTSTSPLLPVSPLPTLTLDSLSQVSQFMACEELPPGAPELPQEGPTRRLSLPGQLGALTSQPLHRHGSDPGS

[15] = Acute toxicity in male Kunming mouse assessed as effect on pathological changes in lung at 500 to 4000 mg/kg measured after 14 days by H and E staining based analysis; format: organism-based; conditions: in vivo, 336 h, dose 500-4000 mg/kg, time 14 day
Mus musculus = test: Antiallodynic activity in female C57/BL mouse assessed as increase in response latency at 60 mg/kg, ip measured after 3 to 7 days by hot plate method; format: functional, organism-based; conditions: time 3-7 day
[16] = Acute toxicity in male Kunming mouse assessed as effect on weight at 500 to 4000 mg/kg measured after 14 days; format: organism-based; conditions: in vivo, 336 h, dose 500-4000 mg/kg, time 14 day
[17] = Clearance in Sprague-Dawley rat at 5 mg/kg, iv; format: ADME, organism-based; conditions: in vivo
Rattus norvegicus [18] = test: Antiinflammatory activity against male Sprague-Dawley rat pressure ulcer model assessed as wound healing rate at 1.25% administration as ointment measured after 7 days (reference value: 70%); format: functional; conditions: time 7 day
[19] = Half life in Sprague-Dawley rat at 5 mg/kg, iv; format: ADME, organism-based; conditions: in vivo
[20] = target: High affinity cGMP-specific 3',5'-cyclic phosphodiesterase 9A (Homo sapiens, UniProt O76083); test: Inhibition of PDE9A (unknown origin)
Chain of High affinity cGMP-specific 3',5'-cyclic phosphodiesterase 9A (O76083 whole entry): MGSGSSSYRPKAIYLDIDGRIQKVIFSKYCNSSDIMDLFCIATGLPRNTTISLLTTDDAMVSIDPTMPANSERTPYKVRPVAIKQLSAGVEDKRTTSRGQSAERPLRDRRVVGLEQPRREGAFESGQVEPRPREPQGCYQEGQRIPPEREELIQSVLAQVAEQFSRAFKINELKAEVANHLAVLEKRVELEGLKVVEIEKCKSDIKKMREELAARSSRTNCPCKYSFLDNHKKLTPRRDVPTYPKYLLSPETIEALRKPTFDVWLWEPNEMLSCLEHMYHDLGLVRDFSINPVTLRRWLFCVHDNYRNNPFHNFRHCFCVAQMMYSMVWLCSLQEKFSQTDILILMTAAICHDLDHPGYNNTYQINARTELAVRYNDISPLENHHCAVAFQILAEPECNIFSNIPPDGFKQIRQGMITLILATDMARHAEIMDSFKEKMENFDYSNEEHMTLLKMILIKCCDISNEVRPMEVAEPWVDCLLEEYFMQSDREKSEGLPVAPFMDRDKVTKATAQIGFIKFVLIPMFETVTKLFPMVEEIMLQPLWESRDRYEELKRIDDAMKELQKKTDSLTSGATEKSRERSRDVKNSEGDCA

RAW264.7 [21] = test: Antiinflammatory activity against mouse RAW264.7 cells assessed as inhibition of LPS-induced NO release preincubated for 2 hrs followed by LPS stimulation and measured after 4 hrs by RT-PCR analysis; format: functional, cell-based
[22] = target: High affinity 3',5'-cyclic-AMP phosphodiesterase 7A (Homo sapiens, UniProt Q13946); test: Inhibition of PDE7A (unknown origin)
Chain of High affinity 3',5'-cyclic-AMP phosphodiesterase 7A (Q13946 whole entry): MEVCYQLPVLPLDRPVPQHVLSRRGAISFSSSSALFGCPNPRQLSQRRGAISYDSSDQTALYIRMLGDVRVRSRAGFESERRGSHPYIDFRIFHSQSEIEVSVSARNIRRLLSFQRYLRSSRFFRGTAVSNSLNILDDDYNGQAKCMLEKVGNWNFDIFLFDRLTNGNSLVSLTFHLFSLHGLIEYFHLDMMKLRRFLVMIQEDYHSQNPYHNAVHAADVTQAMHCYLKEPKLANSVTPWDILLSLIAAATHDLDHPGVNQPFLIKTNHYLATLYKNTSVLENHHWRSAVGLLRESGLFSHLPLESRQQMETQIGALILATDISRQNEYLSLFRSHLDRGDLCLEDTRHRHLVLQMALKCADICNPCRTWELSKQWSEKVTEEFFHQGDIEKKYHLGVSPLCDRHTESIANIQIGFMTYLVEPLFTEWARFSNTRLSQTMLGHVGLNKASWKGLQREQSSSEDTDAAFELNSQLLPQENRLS

Cytochrome P450 2C9 = Cytochrome P450 2C9 (Homo sapiens, UniProt P11712); test: Inhibition of human CYP2C9; format: ADME
Chain of Cytochrome P450 2C9 (P11712 whole entry): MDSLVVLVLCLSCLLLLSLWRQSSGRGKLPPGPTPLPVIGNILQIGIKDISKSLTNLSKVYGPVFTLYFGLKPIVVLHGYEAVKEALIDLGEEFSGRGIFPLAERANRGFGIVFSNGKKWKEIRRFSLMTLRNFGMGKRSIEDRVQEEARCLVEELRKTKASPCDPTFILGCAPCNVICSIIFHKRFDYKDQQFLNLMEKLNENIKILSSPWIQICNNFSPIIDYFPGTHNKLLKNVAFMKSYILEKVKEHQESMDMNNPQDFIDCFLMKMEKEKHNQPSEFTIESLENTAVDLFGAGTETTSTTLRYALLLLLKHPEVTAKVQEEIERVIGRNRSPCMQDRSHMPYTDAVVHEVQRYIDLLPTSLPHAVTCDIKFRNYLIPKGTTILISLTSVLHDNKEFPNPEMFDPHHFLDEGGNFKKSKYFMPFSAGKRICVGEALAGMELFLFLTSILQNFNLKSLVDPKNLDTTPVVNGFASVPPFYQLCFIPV

Rattus norvegicus [23] = test: Antiinflammatory activity against male Sprague-Dawley rat pressure ulcer model assessed as decrease in inflammatory cells in dermis at 0.625 to 2.5% administered as ointment by H and E staining based analysis; format: functional, organism-based
[24] = target: cGMP-dependent 3',5'-cyclic phosphodiesterase (Homo sapiens, UniProt O00408); test: Inhibition of PDE2A (unknown origin)
Chain of cGMP-dependent 3',5'-cyclic phosphodiesterase (O00408 whole entry): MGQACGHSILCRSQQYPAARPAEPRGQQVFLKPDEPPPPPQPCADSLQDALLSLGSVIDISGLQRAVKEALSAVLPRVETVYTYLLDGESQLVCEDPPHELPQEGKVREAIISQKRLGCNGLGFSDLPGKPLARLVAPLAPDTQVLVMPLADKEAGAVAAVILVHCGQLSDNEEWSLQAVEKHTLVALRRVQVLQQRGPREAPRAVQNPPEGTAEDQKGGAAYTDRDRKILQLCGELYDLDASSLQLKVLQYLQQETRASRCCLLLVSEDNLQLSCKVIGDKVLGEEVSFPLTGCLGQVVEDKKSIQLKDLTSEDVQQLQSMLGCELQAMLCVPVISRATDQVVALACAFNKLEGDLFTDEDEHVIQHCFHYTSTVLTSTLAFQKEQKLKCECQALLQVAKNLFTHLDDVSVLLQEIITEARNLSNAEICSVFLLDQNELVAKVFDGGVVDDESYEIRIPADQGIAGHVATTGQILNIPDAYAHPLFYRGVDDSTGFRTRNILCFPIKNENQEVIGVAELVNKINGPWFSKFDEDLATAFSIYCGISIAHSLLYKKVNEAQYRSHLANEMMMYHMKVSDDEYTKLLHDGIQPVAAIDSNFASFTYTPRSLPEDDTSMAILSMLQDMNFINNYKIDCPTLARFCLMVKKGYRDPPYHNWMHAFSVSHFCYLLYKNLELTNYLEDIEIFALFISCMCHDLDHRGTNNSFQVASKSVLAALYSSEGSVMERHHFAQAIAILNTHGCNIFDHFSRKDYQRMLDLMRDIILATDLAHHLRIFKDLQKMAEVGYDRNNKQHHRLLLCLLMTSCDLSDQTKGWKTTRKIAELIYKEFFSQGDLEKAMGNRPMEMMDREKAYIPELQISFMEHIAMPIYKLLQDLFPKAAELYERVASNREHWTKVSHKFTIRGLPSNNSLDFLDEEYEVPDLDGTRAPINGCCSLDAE

Structure (SMILES): Cn1c(=O)c2c(ncn2CCC(=O)NNC(=O)c2cc3nccc(-c4ccc(OC(F)F)c(OCC5CC5)c4)n3n2)n(C)c1=O
- bioavailability [1]: 5.5%
- Tmax [2]: 15 min
- CC50 (RAW264.7 [3]): > 90 µM
- IC50 (Cytochrome P450 2D6): > 50 µM
- Activity (RAW264.7 [4]): Active
- Activity (Rattus norvegicus [5]): Active
- Activity [6]: Non-toxic
- IC50 [7]: 0.029 µM
- Activity [8]: Non-toxic
- Activity [9]: Non-toxic
- Activity (RAW264.7 [10]): Active
- AUC(0-inf) [11]: 236 ng·h/mL
- Activity (Rattus norvegicus [12]): Active
- AUC(0-inf) [13]: 26.8 ng·h/mL
- IC50 [14]: > 10 µM
- Activity [15]: Non-toxic
- Activity (Mus musculus): Active
- Activity [16]: Non-toxic
- clearance [17]: 358 mL/min/kg
- Activity (Rattus norvegicus [18]): 93%
- half-life [19]: 16.8 min
- IC50 [20]: > 50 µM
- IC50 (RAW264.7 [21]): 2.32 µM
- IC50 [22]: 15.1 µM
- IC50 (Cytochrome P450 2C9): 24.7 µM
- Activity (Rattus norvegicus [23]): Active
- IC50 [24]: > 50 µM
